Measurements: US11358952B2, “Substituted 4-aminoisoindoline-1,3-dione compounds, compositions thereof, and methods of treatment therewith” (Celgene Corporation, priority 2018, dated 2022)
pIC50: −log10 of the molar value.

What follows are molecules tested on SU-DHL-4 cell line (assay: SU-DHL-4 cell proliferation assay (Cell Titer-Glo viability)). Settings: Homo sapiens; cell viability IC50 activity level, DLBCL cell line SU-DHL-4, 120 hours post-treatment; read-out: SU-DHL-4 Act.
Assay type: cell-based
How it was run: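 SU-DHL-4 cells (500/well, RPMI-1640 + 10% FBS) exposed to 20-point compound dilutions (0.5 nM–10 μM, 0.1% DMSO) for 120 h at 37°C, 5% CO2. Viability measured by Cell Titer-Glo luminescence at t0 and at 120 h. IC50 is the concentration giving 50% of DMSO control, from a four-parameter logistic fit.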

Row | SMILES | pIC50
1 | Cc1cc(CNc2cccc3c2C(=O)N(C2CCC(=O)NC2=O)C3=O)ccc1CN1CCC(C(=O)N(C)C)CC1 (centres unmarked) [Cpd 79, 1-(4-((2-(2,6-dioxopiperidin-3-yl)-1,3-dioxoisoindolin-4-ylamino)methyl)-2-methylbenzyl)-N,N-dimethylpiperidine-4-carboxamide] | 6.30 to 6.70
2 | Cc1cc(CNc2cccc3c2C(=O)N(C2CCC(=O)NC2=O)C3=O)ccc1CN1CCOCC1 (centres unmarked) [Cpd 155, 2-(2,6-dioxopiperidin-3-yl)-4-(3-methyl-4-(morpholinomethyl)benzylamino) isoindoline-1,3-dione] | 6.00 to 6.12
3 | Cc1cc(CNc2cccc3c2C(=O)N(C2CCC(=O)NC2=O)C3=O)ccc1CN1CCC(OC(C)C)CC1 (centres unmarked) [Cpd 78, 2-(2,6-dioxopiperidin-3-yl)-4-(4-((4-isopropoxypiperidin-1-yl)methyl)-3-methylbenzylamino)isoindoline-1,3-dione] | > 6.70
4 | O=C1CCC(N2C(=O)c3cccc(NCc4ccc(CN5CCC6(COC6)C5)cc4F)c3C2=O)C(=O)N1 (centres unmarked) [Cpd 227, 4-(4-(2-oxa-6-azaspiro[3.4]octan-6-ylmethyl)-2-fluorobenylamino)-2-(2,6-dioxopiperidin-3-yl)isoindoline-1,3-dione] | > 6.70
5 | Cc1cc(CNc2cccc3c2C(=O)N(C2CCC(=O)NC2=O)C3=O)ccc1CN1CC(N2[C@H](C)COC[C@@H]2C)C1 (stereo partly drawn) [Cpd 240, 4-(4-((3-((3S,5R)-3,5-dimethylmorpholino)azetidin-1-yl)methyl)-3-methylbenzylamino)-2-(2,6-dioxopiperidin-3-yl)isoindolinne-1,3-dione] | 6.30 to 6.70
6 | CC1(C)CCC2(CCN(Cc3ccc(CNc4cccc5c4C(=O)N(C4CCC(=O)NC4=O)C5=O)cc3F)CC2)O1 (centres unmarked) [Cpd 148, 4-(4-((2,2-dimethyl-1-oxa-8-azaspiro[4.5]decan-8-yl)methyl)-3-fluorobenzylamino)-2-(2,6-dioxopiperidin-3-yl)isoindoline-1,3-dione] | > 6.70
7 | Cc1cc(CNc2cccc3c2C(=O)N(C2CCC(=O)NC2=O)C3=O)ccc1CN1CCC(OC(C)(C)C)CC1 (centres unmarked) [Cpd 87, 4-(4-((4-tert-butoxypiperidin-1-yl)methyl)-3-methylbenzylamino)-2-(2,6-dioxopiperidin-3-yl)isoindoline-1,3-dione] | > 6.70
8 | CC1(C)COCCN1C1CN(Cc2ccc(CNc3cccc4c3C(=O)N(C3CCC(=O)NC3=O)C4=O)c(F)c2)C1 (centres unmarked) [Cpd 237, 4-(4-((3-(3,3-dimethylmorpholino)azetidin-1-yl)methyl)-2-fluorobenzylamino)-2-(2,6-dioxopiperidin-3-yl)isoindoline-1,3-dione] | > 6.70
9 | O=C1CCC(N2C(=O)c3cccc(NCc4ccc(CN5CC(N6CCOCC6)C5)cc4F)c3C2=O)C(=O)N1 (centres unmarked) [Cpd 171, 2-(2,6-dioxopiperidin-3-yl)-4-(2-fluoro-4-((3-morpholinoazetidin-1-yl)methyl)benzylamino)isoindoline-1,3-dione] | > 6.70
10 | O=C1CCC(N2C(=O)c3cccc(NCc4ccc(CN5CCC(O)(c6ccccn6)CC5)cc4)c3C2=O)C(=O)N1 (centres unmarked) [Cpd 111, 2-(2,6-dioxopiperidin-3-yl)-4-(4-((4-hydroxy-4-(pyridin-2-yl)piperidin-1-yl)methyl)benzylamino)isoindoline-1,3-dione] | > 6.70
11 | O=C1CCC(N2C(=O)c3cccc(NCc4ccc(CN5CCC(N6CCCC6=O)CC5)cc4F)c3C2=O)C(=O)N1 (centres unmarked) [Cpd 170, 2-(2,6-dioxopiperidin-3-yl)-4-(2-fluoro-4-((4-(2-oxopyrrolidin-1-yl)piperidin-1-yl)methyl)benzylamino)isoindoline-1,3-dione] | > 6.70
12 | Cc1nnc(C2CCN(Cc3ccc(CNc4cccc5c4C(=O)N(C4CCC(=O)NC4=O)C5=O)c(F)c3)CC2)o1 (centres unmarked) [Cpd 178, 2-(2,6-dioxopiperidin-3-yl)-4-(2-fluoro-4-((4-(5-methyl-1,3,4-oxadiazol-2-yl)piperidin-1-yl)methyl)benzylamino)isoindoline-1,3-dione] | 6.30 to 6.70

More lines, now with the values ahead:

Row | pIC50 | SMILES
13 | > 6.70 | N#Cc1ccc(C2CN(Cc3ccc(CNc4cccc5c4C(=O)N(C4CCC(=O)NC4=O)C5=O)cc3)C2)cc1 (centres unmarked) [Cpd 7, 4-(1-(4-((2-(2,6-dioxopiperidin-3-yl)-1,3-dioxoisoindolin-4-ylamino)methyl)benzyl)azetidin-3-yl)benzonitrile]
14 | > 6.70 | O=C1CCC(N2C(=O)c3cccc(NCc4ccc(CN5CC6(CCCC6)C5)cc4)c3C2=O)C(=O)N1 (centres unmarked) [Cpd 39, 4-(4-(2-azaspiro[3.4]octan-2-ylmethyl)benzylamino)-2-(2,6-dioxopiperidin-3-yl)isoindoline-1,3-dione]
15 | > 6.70 | NC(=O)c1ccc(N2CCN(Cc3ccc(CNc4cccc5c4C(=O)N(C4CCC(=O)NC4=O)C5=O)c(F)c3)CC2)cn1 (centres unmarked) [Cpd 110, 5-(4-(4-((2-(2,6-dioxopiperidin-3-yl)-1,3-dioxoisoindolin-4-ylamino)methyl)-3-fluorobenzyl)piperazin-1-yl)picolinamide]
16 | > 6.70 | N#Cc1cccc(C2CN(Cc3ccc(CNc4cccc5c4C(=O)N(C4CCC(=O)NC4=O)C5=O)c(F)c3)C2)c1 (centres unmarked) [Cpd 121, 3-(1-(4-((2-(2,6-dioxopiperidin-3-yl)-1,3-dioxoisoindolin-4-ylamino)methyl)-3-fluorobenzyl)azetidin-3-yl)benzonitrile]
17 | 6.30 to 6.70 | Cc1cc(CNc2cccc3c2C(=O)N(C2CCC(=O)NC2=O)C3=O)ccc1CN1CCN(c2ccc(F)cc2F)CC1 (centres unmarked) [Cpd 50, 4-(4-((4-(2,4-difluorophenyl)piperazin-1-yl)methyl)-3-methylbenzylamino)-2-(2,6-dioxopiperidin-3-yl)isoindoline-1,3-dione]
18 | 6.30 to 6.70 | N#Cc1ccc(N2CCN(Cc3ccc(CNc4cccc5c4C(=O)N(C4CCC(=O)NC4=O)C5=O)cc3)CC2)nc1 (centres unmarked) [Cpd 29, 6-(4-(4-((2-(2,6-dioxopiperidin-3-yl)-1,3-dioxoisoindolin-4-ylamino)methyl)benzyl)piperazin-1-yl)nicotinonitrile]
19 | 6.30 to 6.70 | O=C1CCC(N2C(=O)c3cccc(NCc4ccc(CN5CCC(C(F)(F)F)CC5)cc4)c3C2=O)C(=O)N1 (centres unmarked) [Cpd 26, 2-(2,6-dioxopiperidin-3-yl)-4-(4-((4-(trifluoromethyl)piperidin-1-yl)methyl)benzylamino)isoindoline-1,3-dione]
20 | 6.30 to 6.70 | O=C1CCC(N2C(=O)c3cccc(NCc4ccc(CN5CC6(CCCCC6)C5)cc4)c3C2=O)C(=O)N1 (centres unmarked) [Cpd 72, 4-(4-(2-azaspiro[3.5]nonan-2-ylmethyl)benzylamino)-2-(2,6-dioxopiperidin-3-yl)isoindoline-1,3-dione]
21 | > 6.70 | Cc1cc(C#N)ccc1N1CCN(Cc2ccc(CNc3cccc4c3C(=O)N(C3CCC(=O)NC3=O)C4=O)cc2)[C@H](C)C1 (stereo partly drawn) [Cpd 67, 4-((3R)-4-(4-((2-(2,6-dioxopiperidin-3-yl)-1,3-dioxoisoindolin-4-ylamino)methyl)benzyl)-3-methylpiperazin-1-yl)-3-methylbenzonitrile]
22 | 6.30 to 6.70 | O=C1CCC(N2C(=O)c3cccc(NCc4ccc(CN5CCC(n6cccn6)CC5)cc4)c3C2=O)C(=O)N1 (centres unmarked) [Cpd 25, 4-(4-((4-(1H-pyrazol-1-yl)piperidin-1-yl)methyl)benzylamino)-2-(2,6-dioxopiperidin-3-yl)isoindoline-1,3-dione]
23 | 6.30 to 6.70 | O=C1CCC(N2C(=O)c3cccc(NCc4ccc(CN5CCC(O)(C6CC6)CC5)cc4)c3C2=O)C(=O)N1 (centres unmarked) [Cpd 131, 4-(4-((4-cyclopropyl-4-hydroxypiperidin-1-yl)methyl)benzylamino)-2-(2,6-dioxopiperidin-3-yl)isoindoline-1,3-dione]
